Calls of active or inactive are those of the source. No rule for the calls is given here.
Assays:
[1] = growth inhibition of apl2Δ yeast, dose response, selectivity assay for post-Golgi transport modulator project, S. cerevisiae, secondary screen, background strain comparison (AID 789); conditions: S. cerevisiae background (wild-type parent) strain growth inhibition
[2] = tested on: S. cerevisiae apl2Δ mutant growth inhibition; test: as above

Row | Structure (SMILES) | IC50 [1] [µM] | IC50 [2]
1 | CC1CC(C)CN(CC(C)(C)NS(=O)(=O)c2ccc(Cl)cc2)C1 (stereo not given) | > 10 | > 10 µM (inactive)
2 | NC(=O)c1c(NC(=O)CN2C(=O)CCC2=O)sc2c1CCCCC2 | > 10 | > 10 µM (inactive)
3 | Cc1cc2ncn(CC(O)COc3cccc(C(=O)O)c3)c2cc1C (stereo not given) | > 10 | > 10 µM (inactive)
4 | Cc1cc(N2C(=O)C3CCCN3C2c2sccc2C)no1 (stereo not given) | > 10 | > 10 µM (inactive)
5 | COc1ccc(N2CCN(c3oc(-c4ccco4)nc3C#N)CC2)cc1 | > 10 | > 10 µM (inactive)
6 | c1ccc2c(c1)oc1c(Nc3ccc(CN4CCOCC4)cc3)ncnc12 | > 10 | > 10 µM (inactive)
7 | COc1ccc(C2C3=C(CCCC3=O)Nc3nc(-c4cc(OC)c(OC)c(OC)c4)nn32)cc1OC (stereo not given) | > 10 | > 10 µM (inactive)
8 | O=C(CCl)c1ccc(Cc2ncc(C(F)(F)F)cc2Cl)s1 | 8.68 | > 10 µM (inactive)
9 | COCCCn1c2nc3ccccc3nc2c2c(=O)n(-c3ccccc3OC)cnc21 | > 10 | > 10 µM (inactive)
10 | Cc1nn(Cc2cccc(C(=O)NC(C)c3ccc(C(C)(C)C)cc3)c2)c(C)c1[N+](=O)[O-] (stereo not given) | > 10 | > 10 µM (inactive)
11 | Cn1c(=O)c2nc(NCc3ccccc3)cnc2n(C)c1=O | > 10 | > 10 µM (inactive)
12 | COCCCNc1ccnc2c(Cl)cccc12 | > 10 | > 10 µM (inactive)
13 | N=c1nc(N)nc2n1NC(c1ccc(F)cc1)=CS2 | > 10 | > 10 µM (inactive)
14 | CC(C)(C)n1nnnc1CN(Cc1cccnc1)Cc1ccccc1Cl | > 10 | > 10 µM (inactive)
15 | O=Cc1cc2ccccc2nc1SCc1ccc(Cl)cc1 | > 10 | > 10 µM (inactive)
16 | Cc1ccc(C(=O)OCn2ncc(Cl)c(Cl)c2=O)cc1 | 4.62 | > 10 µM (inactive)
17 | OC(c1ccc(Cl)cc1Cl)C(Cc1cccnc1)n1cncn1 (stereo not given) | > 10 | > 10 µM (inactive)
18 | CC(NC(=O)CSc1nc2c(cc1C#N)CN(C)CC2)c1ccccc1 (stereo not given) | > 10 | > 10 µM (inactive)
19 | CCCn1nc([N+](=O)[O-])c(C(C#N)c2nc3ccccc3s2)c(Cl)c1=O (stereo not given) | 2.16 | 13.7 µM (inactive)
20 | CCOC(=O)C(NC(C)=O)(Nc1ccc(S(=O)(=O)Nc2onc(C)c2C)cc1)C(F)(F)F (stereo not given) | > 10 | > 10 µM (inactive)
21 | CCOC(=O)C(C)Oc1ccc2c(C)cc(=O)oc2c1C(C)=O (stereo not given) | > 10 | > 10 µM (inactive)
22 | CCc1n[nH]c2c1/C(=N\O)CC(C)(C)C2 | > 10 | > 10 µM (inactive)
23 | Cc1nn(-c2ccccn2)c(C)c1Oc1ccccc1O | > 10 | > 10 µM (inactive)
24 | Cc1cccc2cc(C#N)c(NCCCn3ccnc3)nc12 | > 10 | > 10 µM (inactive)
25 | c1coc(CNc2nc(N3CCCCC3)nc3ccccc23)c1 | > 10 | > 10 µM (inactive)
26 | CCN(CC)c1ccc(CN2CC=C(c3ccc(F)cc3)CC2)cc1 | 25.8 | 17.3 µM
27 | CCN(CC)C(=O)C1CCN(Cc2ccc(Br)cc2)CC1 | > 10 | > 10 µM (inactive)

Row | Structure (SMILES) | IC50 [1] [µM] | IC50 [2]
28 | Cc1ccc(S(=O)(=O)N2CCN(C3CCN(Cc4ccccc4)CC3)CC2)cc1 | > 10 | > 10 µM (inactive)
29 | COc1ccc(Cl)cc1NC(=O)C(C)N1CCN(C/C=C/c2ccccc2)CC1 (stereo not given) | 15 | 20.4 µM (inactive)
30 | O=C(C1COc2ccccc2O1)N1CCN(Cc2ccc3c(c2)OCO3)CC1 (stereo not given) | > 10 | > 10 µM (inactive)
31 | COc1ccc(C2CC(=O)C3=C(C2)NC(C)=C(C(=O)Nc2ccccc2C)C3c2coc3ccc(C)cc3c2=O)cc1OC (stereo not given) | > 10 | > 10 µM (inactive)
32 | c1ccc(-c2ccc(-c3cnc4n3CCCCC4)cc2)cc1 | > 10 | > 10 µM (inactive)
33 | Cc1ccc2nc(C)cc(OCC(=O)O)c2c1 | > 10 | > 10 µM (inactive)
34 | C=C(C)COc1ccc(-c2ncncc2Oc2ccc(OC)cc2)c(O)c1 | > 10 | > 10 µM (inactive)
35 | CCC(OC(=O)C(NC(=O)c1ccccc1)c1ccccc1)C(=O)Nc1cc(C)on1 (stereo not given) | > 10 | > 10 µM (inactive)
36 | CCOC(=O)COc1ccccc1C1Nc2ccccc2C(=O)N1c1cccc(Cl)c1 (stereo not given) | > 10 | > 10 µM (inactive)
37 | O=S(=O)(c1cnccc1N1CCN(/N=C/c2ccc(Br)cc2)CC1)N1CCCCC1 | > 10 | > 10 µM (inactive)
38 | Cc1cccc(-n2c(N)c(C(=O)NCCN3CCOCC3)c3nc4ccccc4nc32)c1 | > 10 | > 10 µM (inactive)
39 | N#Cc1cn(-c2ccccc2)nc1-c1cc2ccccc2oc1=O | > 10 | > 10 µM (inactive)
40 | N#Cc1nc(COc2ccc(-c3ccccc3)cc2)oc1NCCCN1CCOCC1 | 15.4 | 17.2 µM (inactive)
41 | CC(=O)NC1C(c2nc3ccccc3s2)=C(c2ccccc2)C(=O)N1c1ccc(C)cc1 (stereo not given) | 1.92 | 2.89 µM (inactive)
42 | O=c1cccc2n1CC1CC2CN(S(=O)(=O)c2ccccc2)C1 (stereo not given) | > 10 | > 10 µM (inactive)
43 | CCOC(=O)c1cc2c(ccn2C)n1CC(=O)N1CCN(c2ccccc2OC)CC1 | > 10 | > 10 µM (inactive)
44 | O=C(NCCc1ccccc1)C1CCN(S(=O)(=O)N2CCCC2)CC1 | > 10 | > 10 µM (inactive)
45 | O=C(NCc1ccc2c(c1)OCO2)C1CCCN1C(=O)Nc1ccccc1 (stereo not given) | > 10 | > 10 µM (inactive)
46 | O=C(NCC(c1cccnc1)N1CCN(c2ccccc2)CC1)c1ccc2c(c1)OCO2 (stereo not given) | > 10 | > 10 µM (inactive)
47 | Cc1cc(=O)oc2c(CN3CCCCC3)c(O)c(Cl)cc12 | > 10 | > 10 µM (inactive)
48 | CCn1c(=O)[nH]c2cc(C(=O)N3CCN(c4ccccc4)CC3)ccc2c1=O | > 10 | > 10 µM (inactive)
49 | Clc1ccc(-c2cnc(Oc3ccccc3)nc2)cc1 | > 10 | > 10 µM (inactive)
50 | CCOc1ccc(NC(=O)C/C(N)=N/O)cc1 | > 10 | > 10 µM (inactive)
51 | COCCNC(=O)C(c1ccc(F)cc1)N(CC1CCCO1)C(=O)CCC(=O)Nc1ccccn1 (stereo not given) | > 10 | > 10 µM (inactive)
52 | CCOC(=O)C1CCN(Cc2cnc(Oc3ccc(Cl)cc3C)s2)CC1 | > 10 | > 10 µM (inactive)
53 | Cc1nc(NC(=O)c2ccccc2)sc1-c1csc(NCc2ccccc2)n1 | > 10 | > 10 µM (inactive)
54 | CCSc1nnc(NC(=O)NCC(F)(F)F)s1 | > 10 | > 10 µM (inactive)

Row | Structure (SMILES) | IC50 [1] [µM] | IC50 [2]
55 | COc1cc2[nH]c(=S)n(CCCN3CCOCC3)c(=O)c2cc1OC | > 10 | > 10 µM (inactive)
56 | Cc1ccnc(N2C(=O)c3cccc4c([N+](=O)[O-])ccc(c34)C2=O)c1 | 4.22 | 7.94 µM (inactive)
57 | COc1ccc(NC(=S)NC(NC(=O)c2ccc(Cl)cc2Cl)C(Cl)(Cl)Cl)c([N+](=O)[O-])c1 (stereo not given) | > 10 | > 10 µM (inactive)
58 | COc1ccc(-c2nnc(CSc3nc4ccccc4c(=O)n3C)o2)cc1OC | > 10 | > 10 µM (inactive)
59 | CC(C)OC(=O)CSc1nnc(-c2ccc(Cl)cc2)n1N | > 10 | > 10 µM (inactive)
60 | OC(COCc1ccc(Cl)cc1)CN1CC=C(c2ccccc2)CC1 (stereo not given) | 20.8 | 8.58 µM
61 | O=C(NCc1ccc2c(c1)OCO2)c1ccc(CS(=O)(=O)c2cccc(C(F)(F)F)c2)o1 | > 10 | > 10 µM (inactive)
62 | O=C1CN(C(=O)CSc2nnc(-c3ccccc3)n2Cc2ccc3c(c2)OCO3)c2ccccc2N1 | > 10 | > 10 µM (inactive)
63 | O=C(Nc1nnc(-c2ccc3c(c2)CCCC3)o1)c1ccc(Cl)cc1Cl | 3.46 | > 10 µM (inactive)
64 | COc1cccc(NC(=O)C2CCCN2C(=O)OCc2ccccc2)c1 (stereo not given) | > 10 | > 10 µM (inactive)
65 | CCOc1ccc(-c2[nH]ncc2Oc2ccccc2OCC)c(O)c1 | 16 | 13.4 µM
66 | COC(=O)C1=CN(CCCN2CCCC2=O)C=C(C(=O)OC)C1c1ccccc1C(F)(F)F | > 10 | > 10 µM (inactive)
67 | CCn1c(SCC(=O)N2CCCc3ccccc32)nnc1-c1ccco1 | > 10 | > 10 µM (inactive)
68 | Cc1cc(C(C)(C)C)ccc1OCCN1CCCC1 | > 10 | > 10 µM (inactive)
69 | CCOC(=O)C1=C(CSc2nc(-c3ccccc3)ccc2C#N)OC(N)=C(C#N)C1c1cccnc1 (stereo not given) | > 10 | > 10 µM (inactive)
70 | CCC(C)c1ccc(OCCCCN2CCOCC2)cc1 (stereo not given) | > 10 | 24 µM
71 | COc1cccc(C(=O)N2CCN(C3CCC(c4ccccc4)CC3)CC2)c1OC (stereo not given) | 23.9 | 14.6 µM
72 | Nc1c(C(=O)OCC2CCCO2)c2nc3ccccc3nc2n1-c1ccc2c(c1)OCCO2 (stereo not given) | > 10 | > 10 µM (inactive)
73 | COC(=O)c1ccc(CSc2nnc(NC(C)C)s2)cc1 | > 10 | > 10 µM (inactive)
74 | CC(=O)Nc1ccccc1NS(=O)(=O)c1ccc(Cl)cc1 | > 10 | > 10 µM (inactive)
75 | O=C(Cc1cccs1)Nc1nc2c(s1)CCCC2 | > 10 | > 10 µM (inactive)
76 | COc1ccc(CN(C(=O)Cc2cccs2)C(C(=O)NC2CCCC2)c2ccncc2)cc1 (stereo not given) | > 10 | > 10 µM (inactive)
77 | Cc1ccc(S(=O)(=O)NC(CC(C)C)C(=O)Oc2ccc3c4c(c(=O)oc3c2)CCC4)cc1 (stereo not given) | > 10 | > 10 µM (inactive)
78 | Clc1ccc2[nH]c3c(NCC4CCCO4)ncnc3c2c1 (stereo not given) | > 10 | > 10 µM (inactive)
79 | O=C(OCn1ncc(Br)c(Br)c1=O)c1ccc(F)cc1 | 5.38 | > 10 µM (inactive)
80 | Cc1ccc(S(=O)(=O)c2c(C)nn(C(C)(C)C)c2OC(=O)c2ccc(Br)o2)cc1 | > 10 | > 10 µM (inactive)

Source: PubChem BioAssay AID789 (SRMLSC, 2007)
